In patent US6180378A, “Immobilization of bioactive protein in phyllosilicates” (The United States of America as represented by the …, priority 1999, dated 2001):

What was measured:
[1] = target: T1, soybean lipoxygenase (LOX, type I-B) immobilized in crosslinked phyllosilicate (TMOS-crosslinked montmorillonite) (Glycine max, UniProt P08170); experiment: LOX oxidation of linoleic acid, hydroperoxide (HPOD) formation, immobilized enzyme; format: biochemical; conditions: substrate linoleic acid 0-20 μmoles; Lineweaver-Burk plot; LOX immobilized in crosslinked phyllosilicates
T1 construct: purchased Sigma, St. Louis, Mo
T1 sequence (P08170 1-839): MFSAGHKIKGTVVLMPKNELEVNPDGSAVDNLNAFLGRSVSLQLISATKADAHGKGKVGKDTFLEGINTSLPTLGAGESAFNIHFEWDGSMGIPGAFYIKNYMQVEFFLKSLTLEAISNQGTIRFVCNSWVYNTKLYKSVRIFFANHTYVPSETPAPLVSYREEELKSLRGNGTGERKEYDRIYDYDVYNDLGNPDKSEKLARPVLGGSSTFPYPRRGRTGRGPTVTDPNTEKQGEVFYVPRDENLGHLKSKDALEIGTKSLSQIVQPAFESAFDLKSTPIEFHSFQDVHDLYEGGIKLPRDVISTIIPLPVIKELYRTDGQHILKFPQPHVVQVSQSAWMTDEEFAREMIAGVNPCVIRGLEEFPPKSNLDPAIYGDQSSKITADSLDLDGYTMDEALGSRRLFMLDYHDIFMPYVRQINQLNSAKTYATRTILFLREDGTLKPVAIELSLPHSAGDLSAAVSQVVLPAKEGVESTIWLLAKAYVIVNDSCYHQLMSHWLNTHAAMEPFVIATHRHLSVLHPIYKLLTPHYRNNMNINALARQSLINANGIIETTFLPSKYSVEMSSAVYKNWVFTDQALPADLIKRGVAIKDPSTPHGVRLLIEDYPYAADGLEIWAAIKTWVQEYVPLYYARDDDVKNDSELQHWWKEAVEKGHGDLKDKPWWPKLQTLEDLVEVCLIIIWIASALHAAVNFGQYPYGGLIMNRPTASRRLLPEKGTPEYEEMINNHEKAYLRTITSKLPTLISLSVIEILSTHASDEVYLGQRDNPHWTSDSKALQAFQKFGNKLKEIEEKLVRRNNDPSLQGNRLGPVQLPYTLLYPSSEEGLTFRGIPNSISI
Method: Measurement of Enzymatic Activity. The activity of the immobilized lipoxygenase was assayed by measurement of hydroperoxide formation (Parra-Diaz, D. et al. [1993] supra). An aliquot of the substrate (5 μmoles of linoleic acid) dissolved in methylene chloride was placed in a 10 mL flask and evaporated to dryness under a stream of nitrogen. The reaction medium containing 0.2 mL of 100 mM deoxychlorate (DOC) and 1.8 mL of sodium borate buffer (0.2 M, pH 9.0) was added to the substrate, and the mixture was then shaken at 250 rpm for 0.5 h at 15° C. The reaction was initiated by adding a suitable amount (approximately 0.15 mg) free or immobilized LOX. Oxidation was conducted at 15° C. with agitation at 250 rpm for two hours. The reaction was quenched by adding 400 μL of 1 M citric add. Linoleic acid hydroperoxide was isolated by extracting the reaction mixture twice with 2 mL chloroform:methanol (2/1, v/v). After removing the solvent under a stream of nitrogen, the hydroperoxide was redissolved in 3 mL ethanol. The amount of hydroperoxide was determined spectrophotometrically by the xylenol orange method (Jiang, T.-Y. et al. [1991] Lipids 26:853-856). […] All results were corrected by subtracting the reading from controls without enzymes. […]
Effect of substrate concentration. The rate of hydroperoxide (HPOD) formation was measured at linoleic acid concentrations ranging from 0-20 μmoles. […]

[2] = target: T2, free soybean lipoxygenase (LOX, type I-B) (Glycine max, UniProt P08170); experiment: LOX oxidation of linoleic acid, hydroperoxide (HPOD) formation, free enzyme; format: biochemical; conditions: substrate linoleic acid; free LOX under similar conditions
T2 sequence (P08170 1-839): T1 sequence (P08170 1-839)
Method: Measurement of Enzymatic Activity. The activity of the immobilized lipoxygenase was assayed by measurement of hydroperoxide formation (Parra-Diaz, D. et al. [1993] supra). An aliquot of the substrate (5 μmoles of linoleic acid) dissolved in methylene chloride was placed in a 10 mL flask and evaporated to dryness under a stream of nitrogen. The reaction medium containing 0.2 mL of 100 mM deoxychlorate (DOC) and 1.8 mL of sodium borate buffer (0.2 M, pH 9.0) was added to the substrate, and the mixture was then shaken at 250 rpm for 0.5 h at 15° C. The reaction was initiated by adding a suitable amount (approximately 0.15 mg) free or immobilized LOX. Oxidation was conducted at 15° C. with agitation at 250 rpm for two hours. The reaction was quenched by adding 400 μL of 1 M citric add. Linoleic acid hydroperoxide was isolated by extracting the reaction mixture twice with 2 mL chloroform:methanol (2/1, v/v). After removing the solvent under a stream of nitrogen, the hydroperoxide was redissolved in 3 mL ethanol. The amount of hydroperoxide was determined spectrophotometrically by the xylenol orange method (Jiang, T.-Y. et al. [1991] Lipids 26:853-856). Standards were prepared by diluting a commercial cumene peroxide. […]

## CCCCC/C=C\C/C=C\CCCCCCCC(=O)O [linoleic acid]
[1]
  Km: 1700 µM
  Vmax: 0.023 µmol/min
[2]
  Km: 2500 µM
  Vmax: 0.056 mol/min
